In patent publication US20210345603A1, “COMPOSITION INTENDED FOR INCREASING THE VELOCITY OF SPERMS COMPRISING SEROTONIN AS ACTIVE COMPOUND” (YILDIZ TEKNÍK ÜNIÌVERSÍTESÌ, priority 2018, published 2021):

Experiments:
[1] = test system: fruit flies; conditions: fruit flies incapable of mating, after being fed with serotonin; cited from earlier work
[2] = test system: sperm cells; assay: Sperm motility test in Makler counting chamber after incubation in sperm wash medium; format: cell-based, human; design: unit not given here
Description: The first step is to collect the sperm cells and the semen of the infertile men within the range of 28-45 is used. Specimens are obtained after a sexual abstinence for 3-4 days. All semen specimens are collected in sterile containers and left to liquefy at 37° C. for 30 minutes. 10 μl of sample is taken into Makler® counting chamber and the concentrations, motilities, viabilities, morphologies of the sperms and the leukocyte existence are evaluated. According to the motility results, the semen specimen is prepared by being washed with HTF based sperm wash solution containing Hepes buffer by using concentration and gradient methods. Washed and prepared sperms are collected in the sperm wash medium in which certain amounts of (25, 50, 100 and 200 μM) 5-HT was added, and incubated at 25′C in certain periods of time (30, 60, 90 and 120 minutes).
Sperm motility tests are performed with the sperms kept in a serotonin medium, by the measurements in the Makler® counting chamber with 30, 60, 90 and 120 min. intervals. Samples with a sperm concentration of 2×10^6 and 50×10^5 per ml max. are included in the analyses. As to the interactions of serotonin and the excipients, washed sperm cells are taken into the sperm wash mediums containing 5-HT and vitamin D, serotonin, selenium, zinc mineral, vitamin C, vitamin E, vitamin B9, vitamin B12 in certain amounts respectively, and are incubated for certain time intervals in an incubator. The dosage of the compounds is determined by examining the effect of the same on sperm motility, both individually and in combination.

## NCCc1c[nH]c2ccc(O)cc12 [serotonin]
[1]
  Mating rate: 25%
[2]; 25 μM serotonin, 30 min incubation at 25° C.
  Change in Average Motility: 82.76
[2]; 25 μM serotonin, 60 min incubation at 25° C.
  Change in Average Motility: 86.28
[2]; 25 μM serotonin, 90 min incubation at 25° C.
  Change in Average Motility: 81.48
[2]; 25 μM serotonin, 120 min incubation at 25° C.
  Change in Average Motility: 81.41
[2]; 50 μM serotonin, 30 min incubation at 25° C.
  Change in Average Motility: 80.56
[2]; 50 μM serotonin, 60 min incubation at 25° C.
  Change in Average Motility: 81.66
[2]; 50 μM serotonin, 90 min incubation at 25° C.
  Change in Average Motility: 86.08
[2]; 50 μM serotonin, 120 min incubation at 25° C.
  Change in Average Motility: 80.45
[2]; 100 μM serotonin, 30 min incubation at 25° C.
  Change in Average Motility: 83.53
[2]; 100 μM serotonin, 60 min incubation at 25° C.
  Change in Average Motility: 80.16
[2]; 100 μM serotonin, 90 min incubation at 25° C.
  Change in Average Motility: 83.86
[2]; 100 μM serotonin, 120 min incubation at 25° C.
  Change in Average Motility: 80.4
[2]; 200 μM serotonin, 30 min incubation at 25° C.
  Change in Average Motility: 82.06
[2]; 200 μM serotonin, 60 min incubation at 25° C.
  Change in Average Motility: 86.46
[2]; 200 μM serotonin, 90 min incubation at 25° C.
  Change in Average Motility: 86.55
[2]; 200 μM serotonin, 120 min incubation at 25° C.
  Change in Average Motility: 82.55
